Read-outs that look alike come from different tables or passages of the source.

Data set [1] relates to COL1A1 (Collagen, type 1, alpha 1). Put plainly: Differential gene fold expression analysis of skin biopsies. The class given is in vivo, human. As to conditions: RNA, biopsy of treated vs untreated skin after 6 weeks of application; participant; parentheses = not statistically significant; negative = decrease. The text has this:
(§1) Differential gene fold expression analysis was used to analyze Malassezin and compound AB17151. Biopsies from human subjects were taken after 6 weeks of application of compounds. Two participants applied AB17151 and one participant applied Malassezin. Biopsies were taken of treated skin and, as a control and for comparison, from untreated skin.
(§2) In the Table, numbers in parentheses indicate changes that are not statistically significant. All numbers indicate fold change in expression. Negative values indicate decreases in activity. A minus-3-fold change in activity, for example, means that the value changed by minus-3-fold, meaning it changed to ⅓ of its original value.

Data set [2] deals with COL1A2 (Collagen, type 1, alpha 2). The data set is described as above. The class given is in vivo, human. As to conditions: RNA, biopsy of treated vs untreated skin after 6 weeks of application, parentheses = not statistically significant, negative = decrease.
Source text: as §1, §2

Data set [3] concerns COL3A1 (Collagen, type III, alpha 1). Described as above. The class given is in vivo, human. As to conditions: RNA, biopsy of treated vs untreated skin after 6 weeks of application, parentheses = not statistically significant, negative = decrease.
Source text: as §1, §2

The subject of data set [4] is COL5A1 (Collagen, type V, alpha 1). The description is as above. As to conditions: RNA, biopsy of treated vs untreated skin after 6 weeks of application; participant; parentheses = not statistically significant; negative = decrease. The class given is in vivo, human.
Source text: as §1, §2

The subject of data set [5] is COL5A2 (Collagen, type V, alpha 2). The description is as above. It counts as in vivo, human. As to conditions: RNA, biopsy of treated vs untreated skin after 6 weeks of application; participant; parentheses = not statistically significant; negative = decrease.
Source text: as §1, §2

Data set [6] deals with MMP7 (Matrix Metalloproteinase 7). Described as above. The following applies: RNA, biopsy of treated vs untreated skin after 6 weeks of application; participant one; parentheses = not statistically significant; negative = decrease. It counts as in vivo, human.
Source text: as §1, §2

Data set [7] has as its system PCOLCE2 (Pro-Collagen C endopeptidase enhancer 2). The description is as above. It counts as in vivo, human. The following applies: RNA, biopsy of treated vs untreated skin after 6 weeks of application, parentheses = not statistically significant, negative = decrease.
Source text: as §1, §2

For a further data set, the system named is subject's skin. Nature of the data set: In vivo photoprotection, clinical erythema evaluation after UVB irradiation. Details: species or system human. The following applies: Malassezin 1% formulation, one Skin Type IV subject. The text has this: The Malassezin 1% formulation used in this study contained the following ingredients: Water (aqua)—65.939%; Dimethyl isosorbide—20.000%; Olive Oil Glycereth-8 Esters—3.000%; Glycerin—2.991%; Coconut Alkanes—2.700%; Hydroxyethyl Acrylate/Sodium Acryloyldimethyl Taurate Copolymer—1.700%; Malassezin—1.000%; Pentylene Glycol—1.000%; Phenoxyethanol—0.640%; Coco-Caprylate/Caprate—0.300%; Caprylyl Glycol—0.200%; Chlorphenesin—0.160%; Sorbitan Isostearate—0.140%; Tocopherol—0.100%; Polysorbate 60-0.080%; and Disodium EDTA—0.050%.
A Skin Type IV […] was included in this Proof of Concept study.
A template of 6 squares was placed on the lower left back (1.5 cm×1.5 cm) of the test subject.
Twenty-four hours after irradiation, the subject returned for MED assessment.
A second right lower square was treated twice daily from day 4 to day 7, and a third medial square for one application on day 7. The product vehicle was applied for 7 days twice daily on the left back. The subject returned to the research center for irradiation on day 7. Each test site was irradiated with 120 mJ of UVB exposure. The subject returned in 24 hours for assessment of phototoxicity/photoprotection.
The subject continued the experiment, receiving Malassezin 1% for a total of 14 days. […]

The next data set concerns fine lines and wrinkles. Put plainly: Fine lines and wrinkles, dermatologist evaluation (Lemperle classification). The class given is in vivo, human. As to conditions: 11 subjects, 0.1%, 0.5% and 1.0% formulations pooled. As to the method: Malassezin formulations were evaluated for their effect on fine lines and wrinkles. In this study, human subjects with skin containing areas of hyperpigmentation were randomized to one of 3 groups. […] One mL of product (formulations detailed below) was applied to the face of subjects twice daily. Five minutes after the morning application, an SPF 50 sunscreen was applied to protect the treated areas from sun. Each subject had assessments at Baseline, 2, 4, 8, 14, 18 and 22 weeks. Treatment was ceased at 14 weeks. Week 18 and week 22 observations were to determine any return towards baseline.
Eleven subjects using the test ingredient completed week 14. […] An M.D. dermatologist with experience in evaluating fine lines and wrinkles performed evaluations on the subjects in this study and obtained the measurements tabulated below. Wrinkle assessment, classification, and evaluation were performed as described in G. Lemperle et al., A classification of facial wrinkles, Plast. Reconstr. Surg. 108: 1735 (2001), incorporated by reference herein in its entirety. For each subject, the percentage Malassezin formulation is indicated.

Data set [8] has as its system lines and wrinkles, skin texture, tone and firmness. Put plainly: Subject self-assessment questionnaire. It counts as in vivo, human. As to conditions: percentage of 11 subjects with a score of 6 or 5, formulations pooled. As to the method:
Malassezin formulations were evaluated for their effect on fine lines and wrinkles. In this study, human subjects with skin containing areas of hyperpigmentation were randomized to one of 3 groups. Product use groups included Malassezin 0.05%, 0.1%, and 1.0%. One mL of product (formulations detailed below) was applied to the face of subjects twice daily. Five minutes after the morning application, an SPF 50 sunscreen was applied to protect the treated areas from sun. Each subject had assessments at Baseline, 2, 4, 8, 14, 18 and 22 weeks. Treatment was ceased at 14 weeks. Week 18 and week 22 observations were to determine any return towards baseline.
A subject self-assessment was completed at every visit. A total number of eleven (11) subjects were asked to respond to the questions regarding the improvement (if any) in their lines and wrinkles and related skin texture, tone, and firmness. Each answer was ranked from 6 to 1, with each having the meaning: 6—Strongly agree, 5—Agree, 4—Agree somewhat, 3—Disagree somewhat, 2—Disagree, and 1—Strongly disagree. The percentage of subjects answering with a score of 6 or 5 was calculated and is presented in the data below.

The nature of another data set: Adverse events recording. It counts as in vivo, human. The following applies: all visits; Malassezin 0.1%, 0.5%, 1.0% formulations twice daily to the face. As to the method:
Evaluation: Colorimetry measurements using the Mexameter MX 18 were used at Baseline, and Weeks 2, 4, 8, 14, 18, and 22. Clinical assessments of depigmentation was performed in the treated area. Assessments were performed at Baseline, and Weeks 2, 4, 8, 14, 18, and 22. Brightening assessments included brightening of normal skin and/or severity of dyschromia, if present (see scale). Global improvement was measured at the same time intervals. At all visits any adverse events (AE) was to be recorded including itching, burning, erythema, edema, dryness, scaling or skin peeling (see rating scales). […] Positive percentages indicate increased pigmentation, which indicates darkening. “Conc.” indicates the concentration of Malassezin in the formulation administered to the subject.

For data set [9] the following is noted: cited from earlier work; for sun protection factor (SPF): 290-400 nm.
Another data set concerns skin of healthy subjects. As to conditions: cited from earlier work.

Turning to `COC(=O)c1c(C(c2c[nH]c3ccccc23)C2CC2)[nH]c2ccccc12` (centres unmarked) [AB17151], the “COL1A1 fold change in expression” value in data set [1] is recorded as 5.61 fold change. Besides, the entries for the “COL1A2 fold change in expression” value in data set [2] (participant one) and in [2] (participant) were 1.99 fold change and 6.97 fold change, respectively. In addition, the “COL3A1 fold change in expression” value in [3] (participant one) is 2.59 fold change; in data set [3] (participant) it was 6.26 fold change. Also, the “COL5A1 fold change in expression” value in data set [4] was 6.1 fold change. Further, the “COL5A2 fold change in expression” value in data set [5] is 2.23 fold change. The “MMP7 fold change in expression” value in data set [6] is 1.79 fold change. Further, the results for the “PCOLCE2 fold change in expression” value in data set [7] (participant one) and in [7] (participant) were 1.57 fold change and 1.5 fold change, respectively.
In the case of `O=Cc1c(Cc2c[nH]c3ccccc23)[nH]c2ccccc12` [Malassezin], the “UV-protective properties, conclusion of the Proof of Concept study” value in the data set with subject's skin is listed as “UV-protective properties”. The “COL3A1 fold change in expression” value in data set [3] (participant two) was 1.7 fold change. The “Fine lines/wrinkles score, Average” value in the data set on fine lines and wrinkles (Week 0 (baseline)) is on record as 2.55. For the same molecule, the “Fine lines/wrinkles score, Average” value in the data set with fine lines and wrinkles (Week 2, P-value 0.024 (Student's T test)) was found to be 1.82. The “Fine lines/wrinkles score, Average” value with fine lines and wrinkles (Week 4, P-value 0.011 (Student's T test)) was determined as 1.73. The “Fine lines/wrinkles score, Average” value in the data set on fine lines and wrinkles (Week 8, P-value 0.011 (Student's T test)) was 1.73. In addition, in the data set with fine lines and wrinkles (Week 14, P-value 0.011 (Student's T test)), the “Fine lines/wrinkles score, Average” value was 1.73. In data set [8] (Week 2), the “Self-assessment: I have smoother skin texture” value is 45.45%; the “Self-assessment: My Lines and wrinkles are less visible” value is 36.36%; the “Self-assessment: My skin firmness has improved” value was found to be 36.36%; the “Self-assessment: My skin has a brighter tone” value is 45.45%. Further, in data set [8] (Week 2), the “Self-assessment: My skin looks more youthful and healthy” value is recorded as 45.45%; the “Self-assessment: My skin texture is less coarse” value amounted to 54.55%; the “Self-assessment: Overall skin texture is improved” value worked out at 54.55%; the “Self-assessment: Overall skin tone is improved” value was found to be 54.55%. Further, in data set [8] (Week 4), the “Self-assessment: I have smoother skin texture” value was determined as 63.64%; the “Self-assessment: My Lines and wrinkles are less visible” value is recorded as 54.55%; the “Self-assessment: My skin firmness has improved” value is on record as 63.64%; the “Self-assessment: My skin has a brighter tone” value was found to be 63.64%. Besides, in [8] (Week 4), the “Self-assessment: My skin looks more youthful and healthy” value worked out at 63.64%; the “Self-assessment: My skin texture is less coarse” value is recorded as 63.64%; the “Self-assessment: Overall skin texture is improved” value is 63.64%; the “Self-assessment: Overall skin tone is improved” value worked out at 63.64%. Also, in data set [8] (Week 8), the “Self-assessment: I have smoother skin texture” value was 81.82%; the “Self-assessment: My Lines and wrinkles are less visible” value came to 63.64%; the “Self-assessment: My skin firmness has improved” value was determined as 63.64%; the “Self-assessment: My skin has a brighter tone” value amounted to 72.73%. In addition, in data set [8] (Week 8), the “Self-assessment: My skin looks more youthful and healthy” value was found to be 81.82%; the “Self-assessment: My skin texture is less coarse” value was 72.73%; the “Self-assessment: Overall skin texture is improved” value is reported as 81.82%; the “Self-assessment: Overall skin tone is improved” value is recorded as 72.73%. Moreover, in [8] (Week 14), the “Self-assessment: I have smoother skin texture” value came to 90.91%; the “Self-assessment: My Lines and wrinkles are less visible” value turned out to be 90.91%; the “Self-assessment: My skin firmness has improved” value came to 72.73%; the “Self-assessment: My skin has a brighter tone” value was determined as 81.82%. For the same molecule, in data set [8] (Week 14), the “Self-assessment: My skin looks more youthful and healthy” value came to 72.73%; the “Self-assessment: My skin texture is less coarse” value is 100.00%; the “Self-assessment: Overall skin texture is improved” value is listed as 90.91%; the “Self-assessment: Overall skin tone is improved” value is listed as 81.82%. Further, the “adverse events (itching, burning, erythema, edema, dryness, scaling or skin peeling)” value in “Adverse events recording” was “No AEs were recorded”.
For the molecule `O=C(c1c[nH]c2ccccc12)c1nccc2c1[nH]c1ccccc12` [pityriacitrin, Pityriacitrin], the figures for the “sun protection factor (SPF)” value in data set [9] (pityriacitrin concentration 1.25% in cream), in data set [9] (pityriacitrin concentration 2.5% in cream) and in data set [9] (pityriacitrin concentration 5% in cream) were 1.4, 1.5 and 1.7, respectively. For the same molecule, the “UVB and UVA transmission” value in data set [9] (pityriacitrin cream formulations) is listed as “decreased with increasing pityriacitrin concentrations”. In the data set with skin of healthy subjects (in vitro and in vivo test methods), the “UV protective effect, overall” value is listed as “very weak”. Further, the “in vivo confirmation of the SPF determined in vitro” value in the data set with skin of healthy subjects (pityriacitrin 5% cream) is listed as “confirmed the validity of the SPF”.
